Assay results: patent US8653036B2, “Methods of treating retinitis pigmentosa” (Mimetogen Pharmaceuticals Inc., priority 2009, dated 2014)

B1: NT-3: Neurotrophin-3 (an agonist of TrkC and p75 receptors) (protein, UniProt P20783 139-257, looked up)
Neurotrophin-3: YAEHKSHRGEYSVCDSESLWVTDKSSAIDIRGHQVTVLGEIKTGNSPVKQYFYETRCKEARPVKNGCRGIDDKHWNSQCKTSQTYVRALTSENNKLVGWRWIRIDTSCVCALSRKIGRT

Legend:
[1] = system: APRE19 cells; test: Protection of retinal pigmented epithelial cells from oxidative-stress-induced apoptosis (TNFα and H2O2), nuclei stained with Hoechst reagent; format: cell-based; settings: stressed APRE19 cells, TNFα and H2O2, sixteen hours
Method: Neurotrophic Protection of Retinal Pigmented Epithelial Cells from Degeneration Due to Oxidative Stress
The purpose of this study was to investigate the pharmacological concept of neurotrophic prevention of oxidative-stress-induced degeneration of retinal pigmented epithelial (RPE) cells. The aim of this study was to validate specific compounds as therapy for retinitis pigmentosa.
APRE19 cells were cultured in complete media, followed by eight hours of serum starvation. Then apoptosis was induced by exposure to oxidative stress (TNFα and H2O2), in the presence or absence of test compounds or controls for sixteen hours. Apoptosis was quantified as the percentage of dead cells over total live+dead cells by counting nuclei stained with Hoechst reagent.
Test agents included nerve growth factor (an agonist of TrkA and p75 receptors), Neurotrophin-3 (an agonist of TrkC and p75 receptors), and compounds D3, 3Ak, 3Ae and 3Aa.

[2] = system: APRE19 cells; settings: cited from earlier work
[3] = system: mouse model of retinal degeneration; test: Mouse model of retinal degeneration: ERG (scotopic and photopic) and number of Outer Nuclear Layer rows; format: in vivo; settings: drug treated versus control treated animals
Method: Additional experiments in a mouse model of retinal degeneration were conducted.

Row | Molecule | protection of apoptosis (in words) [1] | protection of stressed APRE19 cells by neurotrophins (published) [2] | drug effect on ERG (scotopic and photopic) and number of Outer Nuclear Layer rows versus control [3]
1 | N=C(N)NCCC[C@@H]1NC(=O)c2cc(N)ccc2OCc2ccc(C(N)=O)cc2NC(=O)CNC1=O [Compound 3Ak] | quantitative and significant protection of apoptosis, in a dose dependent manner | – | –
2 | NGF: nerve growth factor (an agonist of TrkA and p75 receptors) | – | Protection of stressed APRE19 cells | –
3 | CC[C@H](C)[C@@H]1NC(=O)c2cc(N)ccc2OCc2ccc(C(N)=O)cc2NC(=O)[C@H](CCCCN)NC1=O [Compound 3Aa] | protection is not dose dependent and is less than that seen with compounds D3, 3Ak and 3Ae | – | did not show a drug effect that was statistically significant from control
4 | CC[C@H](C)[C@@H]1NC(=O)c2cc(N)ccc2OCc2ccc(C(N)=O)cc2NC(=O)[C@H](CCCNC(=N)N)NC1=O [Compound 3Ae] | quantitative and significant protection of apoptosis, in a dose dependent manner | – | –
5 | NCCCC[C@@H]1NC(=O)[C@H](CCC(=O)O)NC(=O)c2cc([N+](=O)[O-])ccc2OCCC(C(=O)NCC(=O)O)NC1=O (stereo partly shown) [Compound D3] | quantitative and significant protection of apoptosis, in a dose dependent manner | – | –
6 | B1 | – | Protection of stressed APRE19 cells | –
